Entries after “also recorded” stand apart in the source; their conditions may differ.
Legend:
[1] = test system: human platelet rich plasma; assay: Platelet aggregometry on human platelet rich plasma; type: cell-based
Description: Platelet aggregometry performed on human platelet rich plasma (250×10^9/L platelets) pre-incubated for 1 h with 1 μM ABT-737 (green line) or not (red) before stimulation with (A) collagen (4 μg/ml) or (B) ADP (10 μM).
Whole blood was collected in sodium citrate (3.2%) and platelet rich plasma obtained by centrifugation at 800 rpm for 12 min at room temperature. Platelet poor plasma was then obtained by centrifugation of remaining blood at 3,000 rpm for 15 min at room temperature. Platelet count was adjusted to 250×10^9/L using platelet poor plasma. Diluted platelet rich plasma was placed in an aggregometer cuvette warmed to 37° C. and stirred whilst light transmission through the plasma was measured in a 4 channel platelet aggregometer. After baseline measurements were obtained, ADP or Collagen (both from Edward Keller) was added to induce aggregation.

Mcl-1 null MEF cells = assay: Assay of Mcl-1 null MEF cells (rescue from ABT-737-induced killing, CellTitre-Blue viability); type: cell-based, mouse; details: Mcl-1^(-/-) MEFs
Description: In summary, cells are split on day one in order to have them at a confluency of 60-80% on day two. On day two, the cells are seeded out into assay plates at a density that will ensure they are not confluent by day four of the assay. The assay plates are incubated at room temperature for 20-60 minutes before being transferred to 37° C. so that edge effects are minimized. For the same reason, assay plates are never stacked on top of each other in the incubator. On day three the cells are treated first with either Q-VD or with WEHI library compound. The cells are incubated for a 2 hour period in the presence of the library compounds and are then treated with ABT-737. […] After four hours the level of resorufin is measured.
The protocol for day one was repeated up to the point where the cells were pelleted and the supernatant aspirated off. […] The cells were vortexed and then counted using a haemocytometer. The dilution necessary to achieve a density of 2×10^4 cells ml^−1 (1000 cells per well per 50 μl media) in the required volume was calculated and the dilution performed in 1% FCS FMA. […]
CellTitre-Blue™ was warmed to 37° C. and 10 μl was then added to each well of the assay plates using the Multidrop. The plates were returned to 37° C. for 4 hours before being loaded into the EnVision plate reader. […]

[2] = test system: tumor cell lines derived from small cell lung cancers or lymphomas; details: small cell lung cancer or lymphoma derived lines; Oltersdorf et al., 2005; cited from earlier work
megakaryocytes = details: mouse, in vivo
Description: (§1) The hematocrit, platelet and white cell count, and differential were determined by using either manual or automated (Advia 120) counting techniques. In most experiments, with the exception of data shown in FIGS. 1A and 6E, the data was collected from male mice. Clonal cultures of 2.5×10^4 adult bone marrow cells or 5×10^4 spleen cells in 1 mL of 0.3% agar in DMEM supplemented with newborn calf serum (20%) were stimulated with a mixture of 100 ng/mL murine stem cell factor, 10 ng/mL murine IL-3, 4 units/mL human EPO and incubated for 7 days at 37° C. in a fully humidified atmosphere of 10% CO2 in air. Agar cultures were fixed, sequentially stained for acetylcholinesterase, Luxol fast blue and hematoxylin; the cellular composition of each colony determined at ×100-400 magnification. Megakaryocyte counts were performed by manual counting from sections of sternum and spleen after staining with hematoxylin/eosin. A minimum of 10 high-power fields (×200) were scored.

platelets = assay: ABT-737 administration to mice, peripheral blood platelet counts; type: in vivo, mouse
Description: Animals were bled 2-24 h afterwards and platelet counts determined. […] Platelet counts (blue symbols; left axis) were determined 2-96 h after a single dose of ABT-737 (red arrow). […] Orange symbols represent serum TPO levels (right axis). […] Platelet counts were determined before and 8 h after a single dose of ABT-737 (red arrows) given at weekly intervals. […] (E) Synchronizing platelets. […] Wild type C57BL/6 mice were treated with APS, and then injected with ABT-737 (red arrows) either 2 or 7 days afterwards. Absolute platelet counts and the % of reticulated platelets were measured. The top panels show representative flow cytometric profiles following thiazole orange staining before or after ABT-737 injections. The bottom panels show platelet counts prior to or 2 h post ABT-737 injection. Data in (B), (C), (E) and (F) represent means±SD of 3-6 mice at each time point. […]
as §1
Mice were injected intra-peritoneally with 75 mg/kg of ABT-737 given as a single dose or daily. A stock solution of ABT-737 (1 g/mL in DMSO) was diluted in a mixture of 30% propylene glycol, 5% Tween 80, 65% D5W (5% dextrose in water), pH 4-5; the final concentration of DMSO was less than 1%.

CN(C)CC[C@H](CSc1ccccc1)Nc1ccc(S(=O)(=O)NC(=O)c2ccc(N3CCN(Cc4ccccc4-c4ccc(Cl)cc4)CC3)cc2)cc1[N+](=O)[O-] [ABT-737]
responses to other agonists (Epinephrine, Arachidonic Acid, Ristocetin) ([1]; 1 μM ABT-737 (data not shown)): did not alter responses
platelet activation / aggregation in response to collagen or ADP ([1]; pre-incubated 1 h with 1 μM ABT-737, collagen 4 μg/ml or ADP 10 μM): did not trigger platelet activation or adversely impact upon the ability of platelets to aggregate; also recorded: did not induce platelet aggregation or affect that with agonists
induction of apoptosis in Mcl-1^(-/-) cells (Mcl-1 null MEF cells): Apoptosis is induced
efficacy against tumor cell lines [2]: single agent efficacy
megakaryocytopoiesis in ABT-737 treated mice (megakaryocytes): normal, or probably even elevated
effect of ABT-737 on newly synthesized young platelets (platelets; ABT-737 injected 2 days post-APS, counts 2 h post injection): highly resistant
effect of ABT-737 on aged platelets (platelets; ABT-737 injected 7 days post APS, counts 2 h post injection): susceptible
effect of ABT-737 on platelets in Bak^-/- Bax^+/- mice (platelets; Bak^-/- Bax^+/- mice, single dose 75 mg/kg, 0-24 h, 75 mg/kg): entirely refractory; also recorded: enthely refractory; also recorded: completely protected
effect of ABT-737 on platelet counts in Bak^-/- mice (platelets; Bak^-/- mice, single dose 75 mg/kg, 0-24 h, 75 mg/kg): significantly buffered; also recorded: unaffected by ABT-737 at early time points (up to 4 h)
impact of loss of Bax alone on the effect of ABT-737 (platelets; Bax-deficient mice (data not shown)): little impact
ABT-737-induced thrombocytopaenia in Bcl-x^+/- mice (platelets; Bcl-x^+/- vs wild type and Bcl-2^+/- mice, single dose 75 mg/kg, 2-24 h, 75 mg/kg): exacerbates
platelet levels during continued daily ABT-737 (platelets; daily injections continued for 14 days): 60-70 % of normal
platelet counts with weekly ABT-737 (platelets; single dose given at weekly intervals, counts before and 8 h after): acute thrombocytopaenia ensued in a cyclical manner; also recorded: comparable drop in platelets each time
dose dependence of thrombocytopaenia (platelets; wild type C57BL/6 mice (data not shown)): dose dependent
platelet counts after recovery from a single dose (platelets; wild type C57BL/6 mice, 2-96 h after a single dose): rebound thrombocytosis by day 4
time for platelet counts to recover to normal levels (platelets; wild type C57BL/6 mice, after a single dose): ≤ 3 days
